Earlier results, collected in patent US4746734A, “Partially methylated cyclodextrins and process for producing the same” (Sanraku Incorporated, priority 1985, dated 1988).

Details: background statement

solubility in water (description of prior art): particularly low in water solubility
SMILES: OC[C@H]1O[C@@H]2O[C@H]3[C@H](O)[C@@H](O)[C@@H](O[C@H]4[C@H](O)[C@@H](O)[C@@H](O[C@H]5[C@H](O)[C@@H](O)[C@@H](O[C@H]6[C@H](O)[C@@H](O)[C@@H](O[C@H]7[C@H](O)[C@@H](O)[C@@H](O[C@H]8[C@H](O)[C@@H](O)[C@@H](O[C@H]1[C@H](O)[C@H]2O)O[C@@H]8CO)O[C@@H]7CO)O[C@@H]6CO)O[C@@H]5CO)O[C@@H]4CO)O[C@@H]3CO [β-CD]
